Laboratory results from PubChem BioAssay (NCI).
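1) Cells in 96-well plates. 2) Compound, 48 h, 5 concentrations. 3) Linear interpolation between surrounding doses. 4) Unreached endpoint = highest concentration. GI50 = concentration required for 50% inhibition of growth. TGI: concentration producing complete growth inhibition.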

Columns and labels:
Assay in all cases: growth of human tumour cells (NCI), 48 h; in the data active = GI50 below about 0.43 µM; inactive = the rest
[1] = test system: SK-MEL-5 melanoma
[2] = test system: RXF 393 renal
[3] = test system: HT29 colon
[4] = test system: 786-0 renal
[5] = test system: HOP-92 NSCLC
[6] = test system: A498 renal
[7] = test system: NCI-H23 lung
[8] = test system: NCI-H226 lung
[9] = test system: MDA-MB-435
[10] = test system: MCF7 breast
[11] = test system: T-47D breast
[12] = test system: ACHN renal
[13] = test system: HCC-2998 colon
[14] = test system: IGROV1 ovarian
[15] = test system: HCT-116 colon
[16] = test system: OVCAR-5 ovarian
[17] = test system: SK-OV-3 ovarian
[18] = test system: DU-145 prostate
[19] = test system: MDA-MB-231 breast
[20] = test system: SW-620 colon
[21] = test system: MOLT-4 leukemia
[22] = test system: MALME-3M melanoma
[23] = test system: SF-268 CNS
[24] = test system: OVCAR-8 ovarian
[25] = test system: SF-295 CNS
[26] = test system: K-562 leukemia
[27] = test system: HCT-15 colon
[28] = test system: SNB-19 CNS
[29] = test system: SNB-75 CNS
[30] = test system: U251 CNS
[31] = test system: SK-MEL-28 melanoma
[32] = test system: CCRF-CEM leukemia
[33] = test system: UO-31 renal
[34] = test system: HOP-62 NSCLC
[35] = test system: COLO 205 colon
[36] = test system: M14 melanoma
[37] = test system: HS 578T breast
[38] = test system: TK-10 renal
[39] = test system: SF-539 CNS
[40] = test system: SR leukemia
[41] = test system: KM12 colon
[42] = test system: A549 NSCLC
[43] = test system: EKVX NSCLC
[44] = test system: RPMI-8226 leukemia
[45] = test system: NCI/ADR-RES ovarian
[46] = test system: UACC-62 melanoma
[47] = test system: UACC-257 melanoma
[48] = test system: OVCAR-4 ovarian
[49] = test system: HL-60(TB) leukemia
[50] = test system: SN12C renal
[51] = test system: NCI-H460 lung
[52] = test system: SK-MEL-2 melanoma
[53] = test system: CAKI-1 renal
[54] = test system: NCI-H522 lung
[55] = test system: OVCAR-3 ovarian
[56] = test system: PC-3 prostate
[57] = test system: LOX IMVI melanoma

O=CNNC(=O)Nc1ccc(Cl)cc1
76.8 µM: TGI [5]
97.6 µM: TGI [6]
> 100 µM: TGI [1] | TGI [2] | TGI [3] | TGI [4] | TGI [7] | TGI [8] | TGI [9] | TGI [10] | TGI [11] | TGI [12] | TGI [13] | TGI [14] | TGI [15] | TGI [16] | TGI [17] | TGI [18] | TGI [19] | TGI [20] | TGI [21] | TGI [22] | TGI [23] | TGI [24] | TGI [25] | TGI [26] | TGI [27] | TGI [28] | TGI [29] | TGI [30] | TGI [31] | TGI [32] | TGI [33] | TGI [34] | TGI [35] | TGI [36] | TGI [37] | TGI [38] | TGI [39] | TGI [40] | TGI [41] | TGI [42] | TGI [43] | TGI [44] | TGI [45] | TGI [46] | TGI [47] | TGI [48] | TGI [49] | TGI [50]

CCN1C(=O)CS/C1=N/NC(=O)C(O)(c1ccccc1)C1C=CC=CC1 (stereo not given)
> 10 µM: TGI [1] | TGI [2] | TGI [51] | TGI [5] | TGI [7] | TGI [9] | TGI [10] | TGI [11] | TGI [12] | TGI [52] | TGI [14] | TGI [53] | TGI [16] | TGI [17] | TGI [20] | TGI [21] | TGI [22] | TGI [23] | TGI [26] | TGI [29] | TGI [30] | TGI [31] | TGI [32] | TGI [34] | TGI [35] | TGI [36] | TGI [40] | TGI [42] | TGI [44] | TGI [45] | TGI [46] | TGI [48] | TGI [49]

Fc1cc(-c2nnc3n2N=C(c2ccc(Cl)cc2Cl)CS3)c(Cl)cc1Cl
48.5 µM: TGI [11]
88.1 µM: TGI [55]
95.7 µM: TGI [44]
99.6 µM: TGI [46]
94.4 µM: TGI [22]
75.9 µM: TGI [9]
> 100 µM: TGI [2] | TGI [3] | TGI [54] | TGI [4] | TGI [51] | TGI [5] | TGI [7] | TGI [8] | TGI [10] | TGI [12] | TGI [13] | TGI [52] | TGI [14] | TGI [53] | TGI [16] | TGI [17] | TGI [18] | TGI [19] | TGI [20] | TGI [21] | TGI [23] | TGI [24] | TGI [25] | TGI [26] | TGI [27] | TGI [28] | TGI [29] | TGI [30] | TGI [31] | TGI [32] | TGI [33] | TGI [34] | TGI [56] | TGI [35] | TGI [36] | TGI [37] | TGI [38] | TGI [39] | TGI [40] | TGI [41] | TGI [42] | TGI [57] | TGI [43] | TGI [47] | TGI [48] | TGI [49] | TGI [50]
68.7 µM: TGI [15]
99.5 µM: TGI [45]
inactive: GI50 [1] 26.1 µM | GI50 [2] 51 µM | GI50 [3] 40.5 µM | GI50 [54] 50.8 µM | GI50 [4] 47.1 µM | GI50 [51] 37.3 µM | GI50 [5] 54.2 µM | GI50 [7] 82.5 µM | GI50 [8] 36.5 µM | GI50 [9] 24.5 µM | GI50 [10] 31.3 µM | GI50 [11] 11.7 µM | GI50 [12] 66.6 µM | GI50 [13] 35 µM | GI50 [52] > 100 µM | GI50 [14] 50.4 µM | GI50 [53] 35.9 µM | GI50 [15] 25.4 µM | GI50 [16] > 100 µM | GI50 [17] 48 µM | GI50 [18] 49.5 µM | GI50 [19] 33.7 µM | GI50 [20] 36.8 µM | GI50 [21] 75.1 µM | GI50 [22] 26.6 µM | GI50 [23] 36.6 µM | GI50 [24] 57.3 µM | GI50 [55] 22.8 µM | GI50 [25] 36.4 µM | GI50 [26] 47.5 µM | GI50 [27] 38.3 µM | GI50 [28] 25.4 µM | GI50 [29] > 100 µM | GI50 [30] 38.2 µM | GI50 [31] 40.2 µM | GI50 [32] 27.6 µM | GI50 [33] 60.2 µM | GI50 [34] 44.2 µM | GI50 [56] 39.2 µM | GI50 [35] 32.9 µM | GI50 [36] 37.5 µM | GI50 [37] 33.6 µM | GI50 [38] 77.3 µM | GI50 [39] 39.2 µM | GI50 [40] > 100 µM | GI50 [41] 41.9 µM | GI50 [42] 58 µM | GI50 [57] 34.3 µM | GI50 [43] 58.5 µM | GI50 [44] 25.3 µM | GI50 [45] 30.8 µM | GI50 [46] 24.9 µM | GI50 [47] 86 µM | GI50 [48] > 100 µM | GI50 [49] > 100 µM | GI50 [50] 56.4 µM
65.1 µM: TGI [1]
